From ChEMBL document CHEMBL5390301, “Fragment-Based Screening Identifies New Quinazolinone-Based Inositol Hexakisphosphate Kinase (IP6K) Inhibitors” (ACS Med Chem Lett, 2023)

How the values were obtained:
[1] = target: T1, Inositol hexakisphosphate kinase 2 (Homo sapiens, UniProt Q9UHH9); assay: Inhibition of IP6K2 (unknown origin) incubated for 2 hrs in presence of ATP by ADPGlo reagent based assay
T1 sequence (Q9UHH9 whole entry): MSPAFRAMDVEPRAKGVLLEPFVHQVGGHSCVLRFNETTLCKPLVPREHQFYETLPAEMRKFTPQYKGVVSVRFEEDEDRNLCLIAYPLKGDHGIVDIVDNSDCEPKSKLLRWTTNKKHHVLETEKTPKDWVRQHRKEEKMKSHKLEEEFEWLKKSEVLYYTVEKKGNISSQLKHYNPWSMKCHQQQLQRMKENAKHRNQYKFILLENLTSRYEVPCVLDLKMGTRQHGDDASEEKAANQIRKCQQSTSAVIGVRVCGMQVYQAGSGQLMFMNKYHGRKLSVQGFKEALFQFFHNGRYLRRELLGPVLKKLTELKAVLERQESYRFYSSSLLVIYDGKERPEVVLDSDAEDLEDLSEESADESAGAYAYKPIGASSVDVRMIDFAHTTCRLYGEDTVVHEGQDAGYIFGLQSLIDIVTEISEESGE

[2] = target: Inositol hexakisphosphate kinase 1 (Homo sapiens, UniProt Q92551); assay: Inhibition of IP6K1 (unknown origin) incubated for 30 min in presence of ATP by ADPGlo reagent based assay
Sequence of Inositol hexakisphosphate kinase 1 (Q92551 whole entry): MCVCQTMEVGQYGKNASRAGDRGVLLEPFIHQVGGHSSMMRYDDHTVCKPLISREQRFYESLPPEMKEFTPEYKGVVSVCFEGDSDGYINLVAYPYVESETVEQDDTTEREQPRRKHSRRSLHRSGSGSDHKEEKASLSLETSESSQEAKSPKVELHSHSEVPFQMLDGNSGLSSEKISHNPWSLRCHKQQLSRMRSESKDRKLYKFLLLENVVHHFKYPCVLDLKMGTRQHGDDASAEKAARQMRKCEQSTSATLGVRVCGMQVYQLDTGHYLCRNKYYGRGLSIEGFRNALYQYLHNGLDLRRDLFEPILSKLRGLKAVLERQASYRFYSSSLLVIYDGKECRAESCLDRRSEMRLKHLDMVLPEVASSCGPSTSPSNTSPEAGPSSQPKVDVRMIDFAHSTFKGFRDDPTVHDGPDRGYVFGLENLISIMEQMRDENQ

[3] = Selectivity index, ratio of IC50 for IP6K2 (unknown origin) to ratio of IC50 for IP6K3 (unknown origin)

IC50 [2]	SMILES	other results
189 µM	Nc1cc(N2CCCC2)cc2c(=O)[nH]cnc12	
2.41 µM	O=c1[nH]cnc2cc([N+](=O)[O-])c(N3Cc4ccccc4C3)cc12	
118 µM	O=c1[nH]cnc2ncc(/C=C/c3ccccc3)cc12	
6.84 µM	O=c1[nH]cnc2c(F)cc(N3CCCC3)cc12	
2.25 µM	O=c1[nH]cnc2c(Cl)cc(N3CCCC3)cc12	
85.3 µM	Cc1nc2ccc(/C=C/c3ccccc3)cc2c(=O)[nH]1	
0.595 µM	CC1(C)C[N+](c2ccc3nc[nH]c(=O)c3c2)=Cc2ccccc21	
37.4 µM	CN(C)c1cccc(-c2cc(O)c3nc[nH]c(=O)c3c2)c1	
45.2 µM	O=c1[nH]cnc2ccc([N+]3=Cc4ccccc4CCC3)cc12	
0.51 µM	O=c1[nH]cnc2ccc(N3CCCc4ccccc4C3)cc12	
> 200 µM	O=c1[nH]cnc2c([N+](=O)[O-])cc(N3CCCC3)cc12	
67.2 µM	O=C(O)c1cc(/C=C/c2ccccc2)cc2c(=O)[nH]cnc12	
0.757 µM	Nc1cc2nc[nH]c(=O)c2cc1N1Cc2ccccc2C1	
2.88 µM	O=c1[nH]cnc2ccc([N+]3=Cc4ccccc4CC3)cc12	
13.3 µM	O=c1[nH]cnc2ccc(OCc3ccccc3)cc12	
> 200 µM	O=c1[nH]cnc2c(Cl)cc(/C=C/c3ccccc3)cc12	
112 µM	Cn1cnc2ccc(/C=C/c3ccccc3)cc2c1=O	
1.07 µM	O=c1[nH]cnc2ccc(N3Cc4cccc(F)c4C3)cc12	
127 µM	O=c1[nH]cnc2ccc(/C=C/c3ccncc3)cc12	
32.4 µM	O=c1[nH]cnc2ccc(/C=C/c3ccccn3)cc12	
> 200 µM	Cc1cc(F)ccc1-c1cc(O)c2nc[nH]c(=O)c2c1	
30.7 µM	O=c1[nH]cnc2ccc(NCc3ccccc3)cc12	
1.12 µM	O=c1[nH]cnc2ccc(N3CCc4ccccc4C3)cc12	
> 200 µM	O=c1[nH]cnc2c(Cl)cc(N3CCc4ccccc4CC3)cc12	
> 200 µM	O=C1CCNc2ccc(/C=C/c3ccccc3)cc21	
15.4 µM	CN(Cc1ccccc1)c1ccc2nc[nH]c(=O)c2c1	
15.3 µM	O=c1[nH]cnc2ccc(N3CCC(c4ccccc4)CC3)cc12	

Further lines, the compound ahead of its results:

SMILES	IC50 [2]	other results
O=c1[nH]cnc2ccc(CCc3ccccc3)cc12		IC50 [1]: 51.5 µM
O=c1[nH]cnc2ccc(C#Cc3ccccc3)cc12		IC50 [1]: 96.3 µM
Cc1nc2ccc(N3CCCC3)cc2c(=O)[nH]1	> 200 µM	
O=c1[nH]cnc2ccc(N3CCCC3)cc12		IC50 [1]: > 200 µM
O=c1[nH]cnc2ccc(N3CC[C@H]4CCCC[C@@H]4C3)cc12		IC50 [1]: 91.9 µM
Nc1nc2ccc(N3CCCC3)cc2c(=O)[nH]1	> 200 µM	
CN1CCN(c2ccc3nc[nH]c(=O)c3c2)CC1	> 200 µM	
O=c1[nH]cnc2ccc(/C=C/c3ccccc3)cc12		IC50 [1]: 193 µM
O=c1[nH]cnc2cc(F)c(N3CCCC3)cc12	12.2 µM	
Nc1cc2nc[nH]c(=O)c2cc1N1CCCC1	34.3 µM	
O=S1(=O)NC=Nc2ccc(N3CCCC3)cc21	> 200 µM	
O=c1[nH]cnc2ccc(N3CCCC3)c(Cl)c12	> 200 µM	
CN(C)C1CCN(c2ccc3nc[nH]c(=O)c3c2)CC1	> 200 µM	
O=C(O)c1cccc(-c2oc3cc(O)c(O)cc3c(=O)c2O)c1		Ratio IC50 [3]: 5
O=C1CCCc2ccc(N3CCCC3)cc21	> 200 µM	
O=c1[nH]cnc2cnc(N3CCCC3)cc12	94.4 µM	

SMILES	IC50 [2]	other results
O=c1[nH]cnc2ccc(N3C[C@H]4CCCC[C@H]4C3)cc12		IC50 [1]: > 200 µM
O=c1[nH]cnc2cc(N3CCCC3)c(Br)cc12	47.6 µM	
O=c1[nH]cnc2ccc(C3=Cc4ccccc4C3)cc12		IC50 [1]: > 200 µM
O=c1[nH]cnc2ccc(N3CCCC3)c(Br)c12	> 200 µM	
CN(C)c1ccc2nc[nH]c(=O)c2c1	75.4 µM	
O=c1[nH]cnc2ccc(N3CCCCC3)cc12	25.9 µM	
Nc1ncnc2ccc(N3CCCC3)cc12	48.9 µM	
Nc1ccc(N2CCCC2)cc1C(=O)O	22.7 µM	
O=c1[nH]cnc2ccc(N3CCCC3)nc12	> 200 µM	
O=c1[nH]cnc2ccc(N3CCc4ccccc4CC3)cc12		IC50 [1]: > 200 µM
O=c1[nH]cnc2ccc(/C=C/c3ccc(F)cc3)cc12		IC50 [1]: > 200 µM
O=c1[nH]cnc2ccc(NC3CCCCC3)cc12	71.5 µM	
N#Cc1cc(N2CCCC2)cc2c(=O)[nH]cnc12		IC50 [1]: 28.8 µM
c1cc2c(cc1N1CCCC1)CNCC2	> 200 µM	
O=c1[nH]c(=O)c2cc(N3CCCC3)ccc2[nH]1	> 200 µM	
O=C1NCCc2ccc(N3CCCC3)cc21	> 200 µM	
